pEC50, pIC50: −log10 of the molar value.
Key:
PKCθ = biological target: T1, PKCθ (Homo sapiens, UniProt Q04759); assay: In vitro enzyme assay (time-resolved fluorescence kinase assay), PKCθ, 100 μM ATP; assay type: biochemical
T1 construct: His6; purchased Millipore; host or cells: baculovirus in Sf21 cells
Description: (§1) PKC kinase activity was assayed by time-resolved fluorescence in vitro kinase assay. Unless otherwise indicated, all reagents used for enzyme assays were obtained from Sigma. Specifically, 5 μL N- or C-terminal His6-tagged, recombinant, human PKC, expressed by baculovirus in Sf21 cells (Millipore) was mixed with 5 μL inhibitor (various concentrations, 5% final DMSO), 5 μL Bio-cdc peptide (Biotin-Ahx-[…], 2 μM final concentration, New England Peptide) and 5 μL of ATP (100 μM or 1000 μM final concentration) in 1× reaction buffer, 20 μL final volume.
(§2) Following a sixty minute incubation at room temperature, the reaction was quenched with 5 μL of 0.5 M EDTA pH 7.5.
(§3) Background counts from a minus enzyme control is subtracted from all data. Data (after background correction) are converted to percent activity by dividing by the signal obtained from PKC without drug sample.

[1] = tested on: CD3/CD28 induced IL-2 in human T-Blasts; assay: T-Blasts CD3/CD28 induced IL-2 assay; assay type: cell-based; settings: read-out: CD3/CD28-stimulated IL2 in T-blasts EC50
Description: T-Blasts CD3/CD28 Induced IL-2 Assay
Human T-Blasts are generated using PHA following standard protocols. T-Blasts are freeze aliquoted and vials thawed as required. […] Seed 2×10^5/100 μL cell suspension per well in flat bottomed 96 well plate. Compound dilutions are prepared from 100% DMSO stocks. A total of 8 serial dilutions are made (1/3 in 100% DMSO). Compounds are diluted 1/50 in growth medium to prepare 4× stocks of each tested concentration. 50 μL from each 4× stock concentration is added to the 100 μL cell suspension and incubated for 30 minutes prior stimulus addition. A 4× stimulus stock is prepared using anti-CD3+anti-CD28 antibodies. Antibody mix is added to the cell/compounds suspension in 50 μL at 5 μg/mL final concentration. Compounds are tested in duplicates. Plates are transferred to 37° C./CO2 incubator for 24 hours. After incubation 130 μL of supernatant is collected for IL-2 determination while MTT toxicity analysis is performed on remaining cells/medium.

PKCα = biological target: T2, PKCα (Homo sapiens, UniProt P17252); assay: In vitro enzyme assay (time-resolved fluorescence kinase assay), PKCα, 100 μM ATP; assay type: biochemical; settings: 100 μM ATP; read-out: PKCα enzyme IC50
T2 construct: His6; purchased Millipore; host or cells: baculovirus in Sf21 cells
Description: as §1, §2, §3

T1 sequence (Q04759 whole entry): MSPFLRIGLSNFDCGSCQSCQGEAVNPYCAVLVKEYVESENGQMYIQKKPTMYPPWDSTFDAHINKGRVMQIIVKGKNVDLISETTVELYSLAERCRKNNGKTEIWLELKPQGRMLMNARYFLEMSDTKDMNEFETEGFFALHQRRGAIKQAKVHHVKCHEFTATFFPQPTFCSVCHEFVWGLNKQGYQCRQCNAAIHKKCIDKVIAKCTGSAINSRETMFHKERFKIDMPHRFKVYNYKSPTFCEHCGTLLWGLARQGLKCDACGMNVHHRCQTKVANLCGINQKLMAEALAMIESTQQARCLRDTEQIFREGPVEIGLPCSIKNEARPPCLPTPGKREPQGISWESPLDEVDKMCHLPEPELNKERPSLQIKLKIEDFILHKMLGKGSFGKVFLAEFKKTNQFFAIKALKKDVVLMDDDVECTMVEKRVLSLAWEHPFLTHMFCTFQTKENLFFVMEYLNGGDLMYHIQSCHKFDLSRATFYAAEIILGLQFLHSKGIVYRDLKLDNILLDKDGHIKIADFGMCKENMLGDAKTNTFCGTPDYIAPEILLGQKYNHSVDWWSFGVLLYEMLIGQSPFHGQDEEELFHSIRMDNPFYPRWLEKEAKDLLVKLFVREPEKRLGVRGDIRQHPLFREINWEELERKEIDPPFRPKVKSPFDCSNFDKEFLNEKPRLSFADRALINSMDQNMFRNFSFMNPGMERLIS

Structure (SMILES)	pIC50 (PKCθ)	pEC50 [1]	pIC50 (PKCα)
C[C@@H]1C(=O)NN=C2COc3cc(-c4ccccc4F)c(N(C)[C@@]4(C)CCN(C)C4)cc3N21 (single isomer, unassigned) [Example 198-3]	> 6.60	> 6.60	6.00 to 6.60
C[C@@H]1C(=O)NN=C2COc3cc(-c4ccccc4F)c(N(C)[C@]4(C)CCN(C)C4)cc3N21 (single isomer, unassigned) [Example 198-4]	> 6.60	> 6.60	6.00 to 6.60
C[C@@H]1C(=O)NN=C2COc3cc(-c4ccccc4Cl)c(NC4CNC4)cc3N21 [Example 2]	> 6.60	> 6.60	6.00 to 6.60
C[C@@H]1C(=O)NN=C2COc3cc(-c4ccccc4F)c(NC4CNC4)cc3N21 [Example 3]	> 6.60	> 6.60	5.00 to 6.00
C[C@@H]1C(=O)NN=C2COc3cc(-c4ccc(F)cc4F)c(NC4CNC4)cc3N21 [Example 4]	> 6.60	> 6.60	5.00 to 6.00
Cc1ccccc1-c1cc2c(cc1NC1CNC1)N1C(=NNC(=O)[C@H]1C)CO2 [Example 5]	> 6.60	> 6.60	5.00 to 6.00
C[C@@H]1C(=O)NN=C2COc3cc(-c4cccc(F)c4)c(NC4CNC4)cc3N21 [Example 6]	> 6.60	> 6.60	5.00 to 6.00
C[C@@H]1C(=O)NN=C2COc3cc(-c4ccc(Cl)cc4)c(NC4CNC4)cc3N21 [Example 7]	> 6.60	> 6.60	5.00 to 6.00
C[C@@H]1C(=O)NN=C2COc3cc(-c4ccc(Cl)cc4Cl)c(NC4CNC4)cc3N21 [Example 8]	> 6.60	> 6.60	5.00 to 6.00
C[C@@H]1C(=O)NN=C2COc3cc(-c4ccc(F)cc4)c(NC4CNC4)cc3N21 [Example 9]	> 6.60	> 6.60	5.00 to 6.00
C[C@@H]1C(=O)NN=C2COc3cc(-c4cccc5ccccc45)c(NC4CNC4)cc3N21 [Example 10]	> 6.60	> 6.60	5.00 to 6.00
C[C@@H]1C(=O)NN=C2COc3cc(-c4ccc(OC(F)(F)F)cc4)c(NC4CNC4)cc3N21 [Example 11]	6.00 to 6.60	> 6.60	5.00 to 6.00
Cc1cc2c(cc1N(C)C1CNC1)N1C(=NNC(=O)C1C)CO2 (stereo not drawn) [Example 55, 6-(Azetidin-3-yl-methyl-amino)-4,7-dimethyl-2,10-dihydro-9-oxa-1,2,4a-triaza-phenanthren-3-one trifluoroacetic acid]	6.00 to 6.60	5.00 to 6.00	5.00 to 6.00
CC(C)Cc1cc2c(cc1NC1CNC1)N1C(=NNC(=O)C1C)CO2 (stereo not drawn) [Example 58]	> 6.60	> 6.60	5.00 to 6.00
CCc1cc2c(cc1NC1CNC1)N1C(=NNC(=O)C1C)CO2 (stereo not drawn) [Example 59]	> 6.60	6.00 to 6.60	5.00 to 6.00
CC1C(=O)NN=C2COc3cc(C4CCCC4)c(NC4CNC4)cc3N21 (stereo not drawn) [Example 60]	> 6.60	6.00 to 6.60	5.00 to 6.00
C[C@@H]1C(=O)NN=C2COc3cc([C@@H](C)C(F)(F)F)c(NC4CNC4)cc3N21 [Example 61]	> 6.60	6.00 to 6.60	5.00 to 6.00
C[C@@H]1C(=O)NN=C2COc3cc([C@H](C)C(F)(F)F)c(NC4CNC4)cc3N21 [Example 62]	> 6.60	6.00 to 6.60	5.00 to 6.00
CC1C(=O)NN=C2COc3cc(C(C)C(F)(F)F)c(NC4(C)CNC4)cc3N21 (stereo not drawn) [Example 63]	> 6.60	> 6.60	5.00 to 6.00

Structure (SMILES)	pIC50 (PKCθ)	pEC50 [1]	pIC50 (PKCα)
CC1C(=O)NN=C2COc3cc(C4CC4)c(OC4CNC4)cc3N21 (stereo not drawn) [Example 65, 6-(Azetidin-3-yloxy)-7-cyclopropyl-4-methyl-2,10-dihydro-9-oxa-1,2,4a-triaza-phenanthren-3-one trifluoroacetic acid]	> 6.60	> 6.60	5.00 to 6.00
CC1C(=O)NN=C2COc3cc(-c4ccccc4)c(OC4CNC4)cc3N21 (stereo not drawn) [Example 66]	> 6.60	> 6.60	5.00 to 6.00
Cc1cc2c(cc1OC1CNC1)N1C(=NNC(=O)C1C)CO2 (stereo not drawn) [Example 67]	> 6.60	> 6.60	5.00 to 6.00
CC(C)c1cc2c(cc1OC1CNC1)N1C(=NNC(=O)C1C)CO2 (stereo not drawn) [Example 68, 6-(Azetidin-3-yloxy)-7-isopropyl-4-methyl-2,10-dihydro-9-oxa-1,2,4a-triaza-phenanthren-3-one trifluoroacetic acid]	6.00 to 6.60	6.00 to 6.60	5.00 to 6.00
CC1C(=O)NN=C2COc3ccc(OC4(C)CNC4)cc3N21 (stereo not drawn) [Example 69, 4-Methyl-6-(3-methyl-azetidin-3-yloxy)-2,10-dihydro-9-oxa-1,2,4a-triaza-phenanthren-3-one trifluoroacetic acid]	> 6.60	> 6.60	5.00 to 6.00
CC1C(=O)NN=C2COc3ccc(C4CCNCC4)cc3N21 (stereo not drawn) [Example 71, 4-Methyl-6-piperidin-4-yl-2,10-dihydro-9-oxa-1,2,4a-triaza-phenanthren-3-one trifluoroacetic acid]	> 6.60	> 6.60	5.00 to 6.00
CC1C(=O)NN=C2COc3cc(F)c(C4CCNCC4)cc3N21 (stereo not drawn) [Example 72]	6.00 to 6.60	5.00 to 6.00	5.00 to 6.00
CC1CNCCC1c1ccc2c(c1)N1C(=NNC(=O)C1C)CO2 (stereo not drawn) [Example 73]	6.00 to 6.60	5.00 to 6.00	5.00 to 6.00
CC1C(=O)NN=C2COc3ccc(C4CCNCC4(C)C)cc3N21 (stereo not drawn) [Example 74]	> 6.60	6.00 to 6.60	5.00 to 6.00
Cc1cc2c(cc1C1CCNCC1)N1C(=NNC(=O)C1C)CO2 (stereo not drawn) [Example 75, 4,7-Dimethyl-6-piperidin-4-yl-2,10-dihydro-9-oxa-1,2,4a-triaza-phenanthren-3-one trifluoroacetic acid]	> 6.60	6.00 to 6.60	5.00 to 6.00
CC(C)c1cc2c(cc1C1CCNCC1)N1C(=NNC(=O)C1C)CO2 (stereo not drawn) [Example 76, 7-Isopropyl-4-methyl-6-piperidin-4-yl-2,10-dihydro-9-oxa-1,2,4a-triaza-phenanthren-3-one trifluoroacetic acid]	6.00 to 6.60	6.00 to 6.60	5.00 to 6.00
CC1C(=O)NN=C2COc3cc(C4CC4)c(C4CCNCC4)cc3N21 (stereo not drawn) [Example 77, 7-Cyclopropyl-4-methyl-6-piperidin-4-yl-2,10-dihydro-9-oxa-1,2,4a-triaza-phenanthren-3-one trifluoroacetic acid]	> 6.60	6.00 to 6.60	5.00 to 6.00
CC1C(=O)NN=C2COc3ccc(CC4CNC4)cc3N21 (stereo not drawn) [Example 78, 6-Azetidin-3-ylmethyl-4-methyl-2,10-dihydro-9-oxa-1,2,4a-triaza-phenanthren-3-one trifluoroacetic acid]	> 6.60	> 6.60	5.00 to 6.00
CC1C(=O)NN=C2COc3cc(-c4ccccc4)c(NC4(C)CNC4)cc3N21 (stereo not drawn) [Example 79, 4-Methyl-6-(3-methyl-azetidin-3-ylamino)-7-phenyl-2,10-dihydro-9-oxa-1,2,4a-triaza-phenanthren-3-one trifluoroacetic acid]	6.00 to 6.60	5.00 to 6.00	5.00 to 6.00
CC1C(=O)NN=C2COc3cc(F)c(OC4(C)CNC4)cc3N21 (stereo not drawn) [Example 80, 7-Fluoro-4-methyl-6-(3-methyl-azetidin-3-yloxy)-2,10-dihydro-9-oxa-1,2,4a-triaza-phenanthren-3-one trifluoroacetic acid]	> 6.60	> 6.60	5.00 to 6.00
CC(C)c1cc2c(cc1OC1(C)CNC1)N1C(=NNC(=O)C1C)CO2 (stereo not drawn) [Example 82, 7-Isopropyl-4-methyl-6-(3-methyl-azetidin-3-yloxy)-2,10-dihydro-9-oxa-1,2,4a-triaza-phenanthren-3-one trifluoroacetic acid]	> 6.60	> 6.60	6.00 to 6.60
Cc1cc2c(cc1OC1(C)CNC1)N1C(=NNC(=O)C1C)CO2 (stereo not drawn) [Example 83, 4,7-Dimethyl-6-(3-methyl-azetidin-3-yloxy)-2,10-dihydro-9-oxa-1,2,4a-triaza-phenanthren-3-one trifluoroacetic acid]	> 6.60	> 6.60	5.00 to 6.00
CC1C(=O)NN=C2COc3cc(F)c(NC4(C)CNC4)cc3N21 (stereo not drawn) [Example 84, 8-Fluoro-1-methyl-9-((3-methylazetidin-3-yl)amino)-3,5-dihydrobenzo[5,6][1,4]oxazino[3,4-c][1,2,4]triazin-2(1H)-one trifluoroacetic acid]	> 6.60	> 6.60	5.00 to 6.00
